Test results: patent US6852696B2, “Inhibitors of glycosaminoglycans” (The University of Texas System, priority 1999, dated 2005)

Test system: DO11.10 T cells
Assay: DO11.10 T cell proliferation triggered by splenic DC and OVA peptide (3H-thymidine uptake)
Format: cell-based, mice
Description: FIGS. 7A-C. Impact of tetrameric LIP on cytokine production during antigen presentation. (FIG. 7A) XS52 DC (0.2×10^6 cells/well) were cultured in the presence or absence of the KLH-reactive CD4^+ Thl clone HDK-1 (0.2×10^6 cells/well) and/or KLH (100 μg/ml). Culture supernatants collected at 24 hrs were examined for the indicated cytokines by ELISA. Data shown are the means+/−s.e.m. from triplicate samples. (FIG. 7B) XS52 DC and HDK-1 T cells were co-cultured with KLH in the presence of the indicated concentrations of Pep-1. Culture supernatants collected at 24 hrs were examined for the indicated cytokines by ELISA. (FIG. 7C) CD4^+ T cells isolated from DO11.10 transgenic mice (5×10^4 cells/well) were co-cultured with the indicated numbers of splenic DC isolated from BALB/c mice and the OVA peptide (2 μg/ml) in the presence of 500 μg/ml of Pep-1 (open circles), RP (triangles), or DMSO alone (closed circles). Co-cultures of CD4^+ T cells and DC in the absence of OVA peptide served as a control (square). All the cultures were examined for ^3H-thymidine uptake on Day 3. […]
FIGS. 9A-G. DC-associated HA and DC-dependent T cell proliferation. […] Statistically significant differences assessed by a two-tailed Student's t-test for comparing two groups or by analysis of variance (ANOVA) followed by LSD for multiple comparisons are indicated by asterisks (*P<0.05, **P<0.01). […]

Sequence: GAHWQFNALTVR [Pep-1]
- inhibition of DC-dependent, antigen-specific T cell proliferation (300 μM (FIG. 9B)): inhibited
- inhibition of activation of naive CD4+ T cells by splenic DC (500 μg/ml (FIG. 7C)): inhibited the activation of immunologically naive CD4+ T cells
